Experiments:
MDA-MB-435 = test: NCI anticancer screen, MDA-MB-435; format: cell-based, human; conditions: MDA-MB-435, Breast, 48 h
EKVX = test: NCI anticancer screen, EKVX; format: cell-based, human; conditions: Non-Small Cell Lung, 48 h
OVCAR-8 = test: NCI anticancer screen, OVCAR-8; format: cell-based, human; conditions: OVCAR-8, Ovarian, 48 h
OVCAR-5 = test: NCI anticancer screen, OVCAR-5; format: cell-based, human; conditions: OVCAR-5, Ovarian, 48 h
NCI-H23 = test: NCI anticancer screen, NCI-H23; format: cell-based, human; conditions: NCI-H23, Non-Small Cell Lung, 48 h
NCI/ADR-RES = test: NCI anticancer screen, NCI/ADR-RES; format: cell-based, human; conditions: Breast, 48 h
[1] = system: 60 different human cancer cell lines; test: NCI in vitro anticancer screen (whole panel); format: cell-based
OVCAR-4 = test: NCI anticancer screen, OVCAR-4; format: cell-based, human; conditions: OVCAR-4, Ovarian, 48 h
UACC-257 = test: NCI anticancer screen, UACC-257; format: cell-based, human; conditions: UACC-257, Melanoma, 48 h
MALME-3M = test: NCI anticancer screen, MALME-3M; format: cell-based, human; conditions: Melanoma, 48 h
ACHN = test: NCI anticancer screen, ACHN; format: cell-based, human; conditions: Renal, 48 h
HCT-116 = test: NCI anticancer screen, HCT-116; format: cell-based, human; conditions: HCT-116, Colon, 48 h
K-562 = test: NCI anticancer screen, K-562; format: cell-based, human; conditions: K-562, Leukemia, 48 h
SK-MEL-5 = test: NCI anticancer screen, SK-MEL-5; format: cell-based, human; conditions: SK-MEL-5, Melanoma, 48 h
A549/ATCC = test: NCI anticancer screen, A549/ATCC; format: cell-based, human; conditions: Non-Small Cell Lung, 48 h
MDA-MB-231/ATCC = test: NCI anticancer screen, MDA-MB-231/ATCC; format: cell-based, human; conditions: Breast, 48 h
SK-OV-3 = test: NCI anticancer screen, SK-OV-3; format: cell-based, human; conditions: SK-OV-3, Ovarian, 48 h
A498 = test: NCI anticancer screen, A498; format: cell-based, human; conditions: A498, Renal, 48 h
PC-3 = test: NCI anticancer screen, PC-3; format: cell-based, human; conditions: PC-3, Prostate, 48 h
OVCAR-3 = test: NCI anticancer screen, OVCAR-3; format: cell-based, human; conditions: OVCAR-3, Ovarian, 48 h
SNB-75 = test: NCI anticancer screen, SNB-75; format: cell-based, human; conditions: SNB-75, CNS, 48 h
KM12 = test: NCI anticancer screen, KM12; format: cell-based, human; conditions: KM12, Colon, 48 h
TK-10 = test: NCI anticancer screen, TK-10; format: cell-based, human; conditions: TK-10, Renal, 48 h
CAKI-1 = test: NCI anticancer screen, CAKI-1; format: cell-based, human; conditions: CAKI-1, Renal, 48 h
U251 = test: NCI anticancer screen, U251; format: cell-based, human; conditions: U251, CNS, 48 h
NCI-H226 = test: NCI anticancer screen, NCI-H226; format: cell-based, human; conditions: NCI-H226, Non-Small Cell Lung, 48 h
SN12C = test: NCI anticancer screen, SN12C; format: cell-based, human; conditions: Renal, 48 h
HT29 = test: NCI anticancer screen, HT29; format: cell-based, human; conditions: HT29, Colon, 48 h
SK-MEL-28 = test: NCI anticancer screen, SK-MEL-28; format: cell-based, human; conditions: SK-MEL-28, Melanoma, 48 h
[2] = Homo sapiens, read-out: LC50 (the source's name)

Structure (SMILES): COc1cc(CNCC2CCN(C(=O)OC(C)(C)C)CC2)cc(CN2CCN(c3ccccn3)CC2)c1O [Compound Q012132, 2-Methoxy-4-({[(N-t-butyloxycarbonylpiperidin-4-yl)methyl]amino}methyl)-6-[(4-pyridin-2-ylpiperazin-1-yl)methyl]phenol]
- GI50 (MDA-MB-435; Homo sapiens): 18.2 µM
- CC50 (MDA-MB-435; [2]): 73.1 µM
- TGI (MDA-MB-435): 36.4 µM
- GI50 (EKVX; Homo sapiens): 91.2 µM
- CC50 (EKVX; [2]): > 100 µM
- TGI (EKVX): >100 µM
- GI50 (OVCAR-8; Homo sapiens): 22.3 µM
- CC50 (OVCAR-8; [2]): > 100 µM
- TGI (OVCAR-8): 61.8 µM
- GI50 (OVCAR-5; Homo sapiens): 29.3 µM
- CC50 (OVCAR-5; [2]): > 100 µM
- TGI (OVCAR-5): >100 µM
- GI50 (NCI-H23; Homo sapiens): 29.6 µM
- CC50 (NCI-H23; [2]): > 100 µM
- TGI (NCI-H23): >100 µM
- TGI (NCI/ADR-RES): 79.2 µM
- GI50 (NCI/ADR-RES; Homo sapiens): 21.4 µM
- CC50 (NCI/ADR-RES; [2]): > 100 µM
- growth and proliferation of human primary cancer cell-lines (in words) ([1]; NCI screen, 48 h): inhibited growth and proliferation
- cytostatic / cytotoxic effects on human cancer cell-lines (in words) ([1]; low micromolar concentrations, leukemia, melanoma, colon and central nervous system cell-lines): cytostatic and cytotoxic effects
- GI50 (OVCAR-4; Homo sapiens): 47.8 µM
- CC50 (OVCAR-4; [2]): > 100 µM
- TGI (OVCAR-4): >100 µM
- GI50 (UACC-257; Homo sapiens): 18.4 µM
- CC50 (UACC-257; [2]): > 100 µM
- TGI (UACC-257): 45.7 µM
- GI50 (MALME-3M; Homo sapiens): 15.7 µM
- CC50 (MALME-3M; [2]): 65.5 µM
- TGI (MALME-3M): 32.0 µM
- GI50 (ACHN; Homo sapiens): 21 µM
- CC50 (ACHN; [2]): > 100 µM
- TGI (ACHN): 48.5 µM
- TGI (HCT-116): 22.6 µM
- GI50 (HCT-116; Homo sapiens): 10.8 µM
- LC50 (50% lethal concentration) (HCT-116; Homo sapiens): 47.6 µM
- GI50 (K-562; Homo sapiens, K562): 5.21 µM
- CC50 (K-562; Homo sapiens, K562, read-out: LC50 (the source's name)): 73.5 µM
- TGI (K-562): 19.6 µM
- GI50 (SK-MEL-5; Homo sapiens): 13.1 µM
- CC50 (SK-MEL-5; [2]): 51.5 µM
- TGI (SK-MEL-5): 26.0 µM
- GI50 (A549/ATCC; Homo sapiens): 31.2 µM
- LC50 (A549/ATCC; Homo sapiens): > 100 µM
- TGI (A549/ATCC): >100 µM
- TGI (MDA-MB-231/ATCC): 41.0 µM
- GI50 (MDA-MB-231/ATCC; Homo sapiens): 17.8 µM
- CC50 (MDA-MB-231/ATCC; [2]): 94.3 µM
- GI50 (SK-OV-3; Homo sapiens): 29.4 µM
- CC50 (SK-OV-3; [2]): > 100 µM
- TGI (SK-OV-3): 98.8 µM
- TGI (A498): 36.3 µM
- GI50 (A498; Homo sapiens): 17.8 µM
- CC50 (A498; [2]): 74.1 µM
- GI50 (PC-3; Homo sapiens): 21.8 µM
- CC50 (PC-3; [2]): > 100 µM
- TGI (PC-3): 81.1 µM
- GI50 (OVCAR-3; Homo sapiens): 33.1 µM
- CC50 (OVCAR-3; [2]): > 100 µM
- TGI (OVCAR-3): >100 µM
- GI50 (SNB-75; Homo sapiens): 22.3 µM
- LC50 (concentration killing 50% of cells) (SNB-75; Homo sapiens): > 100 µM
- TGI (SNB-75): 49.8 µM
- GI50 (KM12; Homo sapiens): 31.6 µM
- CC50 (KM12; [2]): > 100 µM
- TGI (KM12): >100 µM
- GI50 (TK-10; Homo sapiens): 19.5 µM
- CC50 (TK-10; [2]): 86.5 µM
- TGI (TK-10): 41.0 µM
- TGI (CAKI-1): 51.7 µM
- GI50 (CAKI-1; Homo sapiens): 22.8 µM
- CC50 (CAKI-1; [2]): > 100 µM
- GI50 (U251; Homo sapiens, U-251): 15.1 µM
- CC50 (U251; Homo sapiens, U-251, read-out: LC50 (the source's name)): 55.8 µM
- TGI (U251): 29.1 µM
- GI50 (NCI-H226; Homo sapiens): 65.5 µM
- LC50 (concentration giving 50% net cell kill) (NCI-H226; Homo sapiens): > 100 µM
- TGI (NCI-H226): >100 µM
- CC50 (SN12C; [2]): > 100 µM
- TGI (SN12C): >100 µM
- TGI (HT29): 16.7 µM
- GI50 (HT29; Homo sapiens, HT-29): 3.11 µM
- CC50 (HT29; Homo sapiens, HT-29, read-out: LC50 (the source's name)): 63 µM
- GI50 (SK-MEL-28; Homo sapiens): 16.8 µM
- CC50 (SK-MEL-28; [2]): 75.5 µM
- TGI (SK-MEL-28): 35.6 µM
